Legend:
[1] = system: HaCaT cells; test: antioxidant effect against H2O2 oxidative toxicity (Experimental Example 2); assay type: cell-based, human; conditions: for Number of fluorescent cells (Cell number): untreated 15, H2O2 only 255
[2] = system: H2O2-induced reactive oxygen species generation; test: DCF-DA staining, H2O2-induced reactive oxygen species generation (Experimental Example 3); assay type: cell-based; conditions: for Number of fluorescent cells (Cell number): DCF-DA, untreated 15, H2O2 only 255
Method: To investigate the inhibitory effect of the compound prepared in Embodiment 1 on H2O2-induced reactive oxygen species generation, DCF-DA staining was performed, and the results are shown in Table 3, FIG. 4, and FIG. 5 below. In the experiment, […] were seeded at a density of 2×10^5 cells per dish in a 35 pi dish and incubated for 24 hours. Subsequently, the cells were treated with the compound prepared in Embodiment 1 and further incubated for 24 hours. After 10 minutes of loading with 5 mM DCF-DA, the cells were examined under a fluorescence microscope, and the number of DCF-DA fluorescent cells was counted using Image J.

[3] = system: human keratinocytes (HaCaT cells); test: WST-1 assay, cytotoxicity / skin irritation (Experimental Example 1); assay type: cell-based; conditions: for Cell Viability: 24 hours, HaCaT cells, untreated = 100%
Method: To confirm whether the compound prepared in Embodiment 1 causes toxicity in skin cells and induces skin irritation, a WST-1 assay was conducted, and the results are shown in Table 1 and FIG. 2 below. In the experiment, human keratinocytes (HaCaT cells) were seeded at a density of 1×10^4 cells per well in a 96-well plate with DMEM (Dulbecco's Modified Eagle Medium) containing 10% FBS (Fetal Bovine Serum) and 1% Antibiotic-Antimycotic, and incubated for 24 hours in a constant temperature chamber at 37° C. with 5% CO2. Subsequently, the cells were treated with the compound prepared in Embodiment 1 and incubated for an additional 24 hours.

[4] = various concentrations, compared to positive control group (H2O2 treatment)

Compound | Number of fluorescent cells (Cell number) ([1]; H2O2 1 mM + substance 10 uM) | Number of fluorescent cells (Cell number) ([2]; H2O2 + substance 10 uM) | Cell Viability ([3]; 5 uM) [%] | change in cell viability ([3]; 10 μM treatment) | Cell Viability ([3]; 10 uM) [%] | toxicity to Keratinocyte (HaCaT) cells ([3]; concentrations of 5 and 10 μM) | Number of fluorescent cells (Cell number) ([1]; H2O2 1 mM + substance 5 uM) | increase in reactive oxygen species caused by H2O2 treatment [1, 4] | Number of fluorescent cells (Cell number) ([2]; H2O2 + substance 5 uM) | increase in reactive oxygen species caused by H2O2 treatment [2, 4]
O=C1O[C@H]([C@@H](O)CO)C(O)=C1O [Ascorbic acid, reference compound] | 170 | 170 | – | – | – | – | – | – | – | –
O=C(O)/C=C/c1ccc(O)c(O)c1 [Caffeic acid, reference compound] | 250 | 250 | – | – | – | – | – | – | – | –
O=C(/C=C/c1ccc(O)c(O)c1)OCc1ccc(OC(=O)/C=C/c2ccc(O)c(O)c2)cc1 [Embodiment 1, 4-(((E)-3-(3,4-dihydroxyphenyl)acryloyl)oxy)benzyl (E)-3-(3,4-dihydroxyphenyl)acrylate] | 42 | 42 | 95.9 | cell viability increased | 118.9 | did not show toxicity | 60 | significantly reduced | 60 | significantly reduced

From US20250214924A1, “NOVEL COMPOUNDS AND USES THEREOF” (ACTIVON CO., LTD., priority 2022, published 2025)
